Target: T1, efflux protein (Escherichia coli, UniProt P02980)
T1 sequence (P02980 1-401): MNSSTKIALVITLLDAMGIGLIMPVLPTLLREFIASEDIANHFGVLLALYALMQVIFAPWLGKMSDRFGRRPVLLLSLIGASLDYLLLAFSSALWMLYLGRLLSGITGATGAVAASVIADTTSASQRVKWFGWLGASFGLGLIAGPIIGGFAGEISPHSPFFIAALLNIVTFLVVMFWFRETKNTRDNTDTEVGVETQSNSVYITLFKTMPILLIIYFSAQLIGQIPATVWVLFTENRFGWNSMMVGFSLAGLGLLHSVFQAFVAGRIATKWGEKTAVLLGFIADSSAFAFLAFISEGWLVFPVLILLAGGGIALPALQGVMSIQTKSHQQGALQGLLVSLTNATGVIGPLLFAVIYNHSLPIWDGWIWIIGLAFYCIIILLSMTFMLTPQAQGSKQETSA
Assay: everted membrane vesicle assay, blocking activity of 13-S-derivatives
Assay type: biochemical
Conditions: blocking activity against the efflux protein, everted membrane vesicle assay

Row | Compound | Ki
1 | CCCCCCSCC1c2cccc(O)c2C(=O)C2=C(O)C3(O)C(=O)C(C(N)=O)=C(O)C(N(C)C)C3C(O)C21 (stereo not drawn) [Hexyl] | 5.53 µM
2 | Cc1ccc(CSCC2c3cccc(O)c3C(=O)C3=C(O)C4(O)C(=O)C(C(N)=O)=C(O)C(N(C)C)C4C(O)C32)cc1 (stereo not drawn) [p-Me-Benzyl] | 1.2 µg/mL
3 | CCCCSCC1c2cccc(O)c2C(=O)C2=C(O)C3(O)C(=O)C(C(N)=O)=C(O)C(N(C)C)C3C(O)C21 (stereo not drawn) [Butyl] | 0.5 µg/mL
